Laboratory results taken from the supplement of paper PMC10307832.

Assays:
Assay in all cases: relative viability (nuclei count vs DMSO), 5 days (fraction); higher = more cells survive
[1] = test system: SW 1573
Method in brief: (§1)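 Lung cancer cell lines were seeded in 1536-well plates and dosed by pin tool the next day, with either a single drug or a fixed anchor-drug dose combined with five library-drug doses (not always all listed) spaced in √10 steps. Five days later, one step fixed the cells and stained their nuclei (final 0.05% Triton X-100, 1% formaldehyde, 1 ug/ml Hoechst), and nuclei were counted on 4× images. Relative viability is the nuclei count in treated wells divided by the count in vehicle wells, and each value is the median of duplicate plates.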

[2] = test system: COR-L23
Method in brief: as §1

[3] = test system: IA-LM
Method in brief: as §1

[4] = test system: ABC-1
Method in brief: as §1

[5] = test system: NCI-H1651
Method in brief: as §1

[6] = test system: NCI-H1648
Method in brief: as §1

[7] = test system: SK-MES-1
Method in brief: as §1

[8] = test system: NCI-H1437
Method in brief: as §1

[9] = test system: ChaGo-K-1
Method in brief: as §1

[10] = test system: NCI-H1703
Method in brief: as §1

Question: With `Cc1sc2c(c1C)C(c1ccc(Cl)cc1)=N[C@@H](CC(=O)OC(C)(C)C)c1nnc(C)n1-2` [JQ1] + O=C(CCCCCCC(=O)Nc1ccccc1)NO [Vorinostat] (partner 1 µM) as the compound, how does the relative viability ([1]; first compound 0.04 µM) read?
Answer: The relative viability was 0.695.

Question: And the relative viability ([1]; first compound 0.1265 µM)?
Answer: Its relative viability is 0.365.

Question: And the relative viability ([1]; first compound 0.4 µM)?
Answer: Its relative viability is 0.338.

Question: What about the relative viability ([1]; first compound 1.265 µM) of the same compound?
Answer: The relative viability was 0.231.

Question: And the relative viability ([1]; first compound 4 µM)?
Answer: Its relative viability is 0.238.

Question: And the relative viability ([2]; first compound 0.04 µM)?
Answer: The relative viability was 0.516.

Question: And the relative viability ([2]; first compound 0.1265 µM)?
Answer: Its relative viability is 0.327.

Question: And the relative viability ([2]; first compound 0.4 µM)?
Answer: The relative viability was 0.401.

Question: What about the relative viability ([2]; first compound 1.265 µM) of the same compound?
Answer: Its relative viability is 0.269.

Question: What about the relative viability ([2]; first compound 4 µM) of the same compound?
Answer: Its relative viability is 0.207.

Question: What about the relative viability ([3]; first compound 0.04 µM) of the same compound?
Answer: The relative viability was 0.925.

Question: And the relative viability ([3]; first compound 0.1265 µM)?
Answer: The relative viability was 0.888.

Question: What about the relative viability ([3]; first compound 0.4 µM) of the same compound?
Answer: Its relative viability is 0.197.

Question: What about the relative viability ([3]; first compound 1.265 µM) of the same compound?
Answer: The relative viability was 0.0917.

Question: What about the relative viability ([3]; first compound 4 µM) of the same compound?
Answer: The relative viability was 0.0701.

Question: And the relative viability ([4]; first compound 0.04 µM)?
Answer: Its relative viability is 0.963.

Question: And the relative viability ([4]; first compound 0.1265 µM)?
Answer: The relative viability was 0.557.

Question: What about the relative viability ([4]; first compound 0.4 µM) of the same compound?
Answer: Its relative viability is 0.703.

Question: What about the relative viability ([4]; first compound 1.265 µM) of the same compound?
Answer: Its relative viability is 0.41.

Question: What about the relative viability ([4]; first compound 4 µM) of the same compound?
Answer: The relative viability was 0.296.

Question: What about the relative viability ([5]; first compound 0.04 µM) of the same compound?
Answer: Its relative viability is 0.615.

Question: And the relative viability ([5]; first compound 0.1265 µM)?
Answer: The relative viability was 0.472.

Question: What about the relative viability ([5]; first compound 0.4 µM) of the same compound?
Answer: Its relative viability is 0.445.

Question: And the relative viability ([5]; first compound 1.265 µM)?
Answer: The relative viability was 0.416.

Question: And the relative viability ([5]; first compound 4 µM)?
Answer: Its relative viability is 0.307.

Question: What about the relative viability ([6]; first compound 0.04 µM) of the same compound?
Answer: The relative viability was 0.392.

Question: What about the relative viability ([6]; first compound 0.1265 µM) of the same compound?
Answer: Its relative viability is 0.41.

Question: What about the relative viability ([6]; first compound 0.4 µM) of the same compound?
Answer: The relative viability was 0.264.

Question: And the relative viability ([6]; first compound 1.265 µM)?
Answer: The relative viability was 0.234.

Question: What about the relative viability ([6]; first compound 4 µM) of the same compound?
Answer: The relative viability was 0.198.

Question: What about the relative viability ([7]; first compound 0.04 µM) of the same compound?
Answer: The relative viability was 1.1.

Question: What about the relative viability ([7]; first compound 0.1265 µM) of the same compound?
Answer: The relative viability was 0.813.

Question: And the relative viability ([7]; first compound 0.4 µM)?
Answer: Its relative viability is 0.464.

Question: What about the relative viability ([7]; first compound 1.265 µM) of the same compound?
Answer: Its relative viability is 0.32.

Question: And the relative viability ([7]; first compound 4 µM)?
Answer: The relative viability was 0.273.

Question: And the relative viability ([8]; first compound 0.04 µM)?
Answer: Its relative viability is 0.816.

Question: What about the relative viability ([8]; first compound 0.1265 µM) of the same compound?
Answer: Its relative viability is 0.736.

Question: What about the relative viability ([8]; first compound 0.4 µM) of the same compound?
Answer: The relative viability was 0.686.

Question: What about the relative viability ([8]; first compound 1.265 µM) of the same compound?
Answer: The relative viability was 0.395.

Question: And the relative viability ([8]; first compound 4 µM)?
Answer: Its relative viability is 0.34.

Question: What about the relative viability ([9]; first compound 0.04 µM) of the same compound?
Answer: The relative viability was 0.752.

Question: And the relative viability ([9]; first compound 0.1265 µM)?
Answer: The relative viability was 0.57.

Question: What about the relative viability ([9]; first compound 0.4 µM) of the same compound?
Answer: The relative viability was 0.639.

Question: And the relative viability ([9]; first compound 1.265 µM)?
Answer: The relative viability was 0.505.

Question: And the relative viability ([9]; first compound 4 µM)?
Answer: The relative viability was 0.491.

Question: For `COc1cc2nccc(Oc3ccc(NC(=O)Nc4cc(C)on4)c(Cl)c3)c2cc1OC` [Tivozanib] + NC(=O)Nc1cc(-c2cccc(F)c2)sc1C(=O)N[C@H]1CCCNC1 [AZD7762] (partner 0.2 µM), which relative viability ([10]; first compound 0.005 µM) is on record?
Answer: Its relative viability is 0.124.

Question: What about the relative viability ([10]; first compound 0.01581 µM) of the same compound?
Answer: The relative viability was 0.112.

Question: And the relative viability ([10]; first compound 0.05 µM)?
Answer: Its relative viability is 0.139.

Question: What about the relative viability ([10]; first compound 0.1581 µM) of the same compound?
Answer: Its relative viability is 0.143.

Question: And the relative viability ([10]; first compound 0.5 µM)?
Answer: The relative viability was 0.118.

Question: And the relative viability ([4]; first compound 0.005 µM)?
Answer: The relative viability was 1.05.

Question: And the relative viability ([4]; first compound 0.01581 µM)?
Answer: The relative viability was 0.865.

Question: And the relative viability ([4]; first compound 0.05 µM)?
Answer: The relative viability was 0.895.

Question: What about the relative viability ([4]; first compound 0.1581 µM) of the same compound?
Answer: Its relative viability is 1.12.

Question: What about the relative viability ([4]; first compound 0.5 µM) of the same compound?
Answer: The relative viability was 0.785.

Question: What about the relative viability ([5]; first compound 0.005 µM) of the same compound?
Answer: Its relative viability is 0.381.

Question: What about the relative viability ([5]; first compound 0.01581 µM) of the same compound?
Answer: Its relative viability is 0.429.

Question: What about the relative viability ([5]; first compound 0.05 µM) of the same compound?
Answer: The relative viability was 0.551.

Question: What about the relative viability ([5]; first compound 0.1581 µM) of the same compound?
Answer: Its relative viability is 0.301.

Question: What about the relative viability ([5]; first compound 0.5 µM) of the same compound?
Answer: Its relative viability is 0.421.

Question: What about the relative viability ([6]; first compound 0.005 µM) of the same compound?
Answer: The relative viability was 0.666.

Question: What about the relative viability ([6]; first compound 0.01581 µM) of the same compound?
Answer: The relative viability was 0.708.

Question: And the relative viability ([6]; first compound 0.05 µM)?
Answer: The relative viability was 0.693.

Question: What about the relative viability ([6]; first compound 0.1581 µM) of the same compound?
Answer: The relative viability was 0.585.

Question: What about the relative viability ([6]; first compound 0.5 µM) of the same compound?
Answer: The relative viability was 0.695.

Question: What about the relative viability ([8]; first compound 0.005 µM) of the same compound?
Answer: The relative viability was 1.12.

Question: And the relative viability ([8]; first compound 0.01581 µM)?
Answer: The relative viability was 1.16.

Question: And the relative viability ([8]; first compound 0.05 µM)?
Answer: The relative viability was 1.07.

Question: What about the relative viability ([8]; first compound 0.1581 µM) of the same compound?
Answer: Its relative viability is 1.17.

Question: What about the relative viability ([8]; first compound 0.5 µM) of the same compound?
Answer: The relative viability was 1.04.

Question: And the relative viability ([9]; first compound 0.005 µM)?
Answer: Its relative viability is 0.847.

Question: And the relative viability ([9]; first compound 0.01581 µM)?
Answer: The relative viability was 0.831.

Question: And the relative viability ([9]; first compound 0.05 µM)?
Answer: Its relative viability is 0.901.

Question: What about the relative viability ([9]; first compound 0.1581 µM) of the same compound?
Answer: Its relative viability is 0.909.

Question: What about the relative viability ([9]; first compound 0.5 µM) of the same compound?
Answer: Its relative viability is 0.845.

Question: `CC(=O)O[C@@]12CO[C@@H]1C[C@H](O)[C@@]1(C)C(=O)[C@H](O)C3=C(C)[C@@H](OC(=O)[C@H](O)[C@@H](NC(=O)OC(C)(C)C)c4ccccc4)C[C@@](O)([C@@H](OC(=O)c4ccccc4)[C@H]21)C3(C)C` [Docetaxel] + NC(=O)Nc1cc(-c2cccc(F)c2)sc1C(=O)N[C@H]1CCCNC1 [AZD7762] (partner 0.2 µM) was tested. Which relative viability ([10]; first compound 0.000632 µM) did it give?
Answer: The relative viability was 0.121.

Question: What about the relative viability ([10]; first compound 0.002 µM) of the same compound?
Answer: The relative viability was 0.107.

Question: And the relative viability ([10]; first compound 0.006325 µM)?
Answer: Its relative viability is 0.114.

Question: And the relative viability ([10]; first compound 0.02 µM)?
Answer: The relative viability was 0.0729.

Question: What about the relative viability ([4]; first compound 0.0002 µM) of the same compound?
Answer: The relative viability was 0.826.

Question: And the relative viability ([4]; first compound 0.000632 µM)?
Answer: Its relative viability is 0.795.

Question: And the relative viability ([4]; first compound 0.002 µM)?
Answer: The relative viability was 0.619.

Question: And the relative viability ([4]; first compound 0.006325 µM)?
Answer: The relative viability was 0.297.

Question: And the relative viability ([4]; first compound 0.02 µM)?
Answer: Its relative viability is 0.222.

Question: And the relative viability ([5]; first compound 0.0002 µM)?
Answer: Its relative viability is 0.345.

Question: And the relative viability ([5]; first compound 0.000632 µM)?
Answer: The relative viability was 0.507.

Question: What about the relative viability ([5]; first compound 0.002 µM) of the same compound?
Answer: Its relative viability is 0.394.

Question: What about the relative viability ([5]; first compound 0.006325 µM) of the same compound?
Answer: Its relative viability is 0.13.

Question: And the relative viability ([6]; first compound 0.0002 µM)?
Answer: The relative viability was 0.589.

Question: What about the relative viability ([6]; first compound 0.000632 µM) of the same compound?
Answer: The relative viability was 0.701.

Question: And the relative viability ([6]; first compound 0.002 µM)?
Answer: The relative viability was 0.431.

Question: What about the relative viability ([6]; first compound 0.006325 µM) of the same compound?
Answer: Its relative viability is 0.248.

Question: And the relative viability ([6]; first compound 0.02 µM)?
Answer: Its relative viability is 0.217.

Question: What about the relative viability ([8]; first compound 0.0002 µM) of the same compound?
Answer: The relative viability was 1.08.

Question: And the relative viability ([8]; first compound 0.000632 µM)?
Answer: The relative viability was 1.12.

Question: What about the relative viability ([8]; first compound 0.002 µM) of the same compound?
Answer: The relative viability was 0.616.

Question: And the relative viability ([8]; first compound 0.006325 µM)?
Answer: Its relative viability is 0.281.

Question: What about the relative viability ([8]; first compound 0.02 µM) of the same compound?
Answer: Its relative viability is 0.141.

Question: And the relative viability ([9]; first compound 0.0002 µM)?
Answer: The relative viability was 0.817.

Question: And the relative viability ([9]; first compound 0.000632 µM)?
Answer: Its relative viability is 0.792.

Question: What about the relative viability ([9]; first compound 0.002 µM) of the same compound?
Answer: Its relative viability is 0.578.

Question: What about the relative viability ([9]; first compound 0.006325 µM) of the same compound?
Answer: The relative viability was 0.27.

Question: And the relative viability ([9]; first compound 0.02 µM)?
Answer: Its relative viability is 0.161.
